Results on two molecules are retold here after PMC12124858, “Thymoquinone loaded on chitosan nanoparticles alleviated the consequences of cryptosporidiosis infection in a murine model: Evidence from parasitological, histopathological, immunohistochemical, and immunological studies” (PLOS One, 2025).

Series [1] concerns IL-10. Kind of series: Serum IL-10 by ELISA. Type of series: in vivo, Swiss albino mice. As for the experimental part:
(§1) Immunological measurements: Interleukin-10 (IL-10) and interferon-gamma (IFN-γ) levels in mouse sera were measured. Blood samples were collected in plain tubes from the mice’s retroorbital veins at the indicated time points (14 dpi and 21 dpi). After 30 minutes at room temperature and 15 minutes of centrifugation at 3000 rpm, sera were collected and stored at −20°C. Using an ELISA kit and following the manufacturer’s instructions, the enzyme-linked immunosorbent assay (ELISA) was employed to measure the levels of IFN-γ and IL-10 in the serum (Bioneovan Co.; Ltd, Beijing, China).
(In general: ELISA stands for enzyme-linked immunosorbent assay.)

Series [2] relates to IFN-γ. Kind of series: Serum IFN-γ by ELISA. Type of series: in vivo, Swiss albino mice. The method, then:
as §1

Series [3] deals with Cryptosporidium parvum. Kind of series: Histopathological examination of the spleen (H&E). The settings on record: 21 dpi, in words. It is filed as in vivo, Swiss albino mice. The method, then: (§2) At 21 dpi, the mice were humanely euthanized under light anesthesia induced by isoflurane inhalation (Forane®, Baxter, UK). Representative tissue specimens from all animals’ intestines, livers, and spleens were carefully collected and fixed in a 10% neutral buffered formalin solution for 48 hours. Following fixation, the tissues were dehydrated through a graded series of ethyl alcohol concentrations, cleared in xylene, and subsequently embedded in paraffin wax. Two sections, each 5 µm thick, were obtained from each tissue specimen. The sections were then deparaffinized in xylene and rehydrated through a descending series of alcohol concentrations. After rehydration, the tissue sections were mounted onto histological slides and stained with hematoxylin and eosin (H&E) for microscopic examination. The prepared slides were thoroughly analyzed under a light microscope to identify pathological alterations and evaluate the administered drug’s potential ameliorative effects. This standardized protocol ensured accurate and consistent histological assessment across all samples [39].

The subject of series [4] is Cryptosporidium parvum. The series can be described thus: Oocyst shedding in immunosuppressed infected mice. It is filed as in vivo, Swiss albino mice. The note with it: for I % (percent inhibition of oocyst count) / I% (percent inhibition of oocyst count, effectiveness): versus infected untreated group. The method, then: Animals: The study was conducted following approval by the Research Ethics Committee of Zagazig University, Institutional Animal Care and Use Committee (ZU-IACUC), under protocol number ZU-IACUC/2/F/53/2024, following the National Institutes of Health guidelines for animal experimentation. Seventy male laboratory-bred Swiss albino mice free of parasites were included in this study. The mice weighed 20-25 grams at the start of the trial and were between four and six weeks old. They were purchased from the Biological Supply Center of the Theodor Bilharz Research Institute (TBRI). Throughout the trial, the mice were housed in an air-conditioned animal facility maintained at 20-22°C and were provided with a standard commercial pelleted diet and free access to water. […] Immunosuppression: The mice were subjected to immunosuppression by administering dexamethasone (Dexazone, […] Pharmaceuticals, Cairo, Egypt) orally through an esophageal tube at a rate of 0.25 μg/g/day for 14 consecutive days before being inoculated with C. parvum oocysts. Throughout the experiment, the mice received the same dosage of dexamethasone. The infection: In a previous study, we isolated Cryptosporidium oocysts from diarrheal calves and genetically identified them as C. parvum. The 2.5% potassium dichromate solution containing purified oocysts was stored at 4°C until needed. After preparing an infectious inoculum and counting the number of oocysts in the concentrated stock inoculum, the fluid volume of the inoculum per mouse was determined. Oral-gastric gavage was used to infect each mouse orally with C. parvum oocysts. Approximately 3 × 10^3 oocysts/mouse were used to infect each mouse at 0 days post-infection (dpi). […] Thymoquinone loaded on chitosan nanoparticles was given at the same dose for Group VII. Chitosan was administered at 200 mg/kg three times a week, starting at seven dpi for 2 weeks for Group III [36]. Assessments of the drug therapy: Parasitological examination: The mice feces were collected at 7, 14, and 21 dpi. For the oocyst shedding assessment, the number of Cryptosporidium oocysts in the fecal pellets was counted after staining with Kinyoun's acid-fast stain. Fecal samples were collected from each infected mouse. The mean number of oocysts was calculated for each mouse group. After weighing, a milligram of the fecal pellet was placed in 1 milliliter of 10% formalin. Centrifugation concentrated the fecal solution for ten minutes at 7000 rpm. The number of oocysts in one milliliter of the feces sample was calculated using 100 μl of fecal material dried, stained, and observed through an oil immersion lens (x100). The oocyst count was detected and expressed per gram of feces. The effectiveness of each drug was assessed according to [35] and represented as a percentage of reduction using the following formula: Efficacy(%)=100×((infected model group oocyst count-treated model group oocyst count)/(infected model group oocyst count)) %Inhibition = [(mean oocyst count in the infected untreated group - mean oocyst count in the infected treated group)/mean oocyst count in the infected untreated group] × 100

The test system of series [5] is Cryptosporidium parvum. Kind of series: Histopathological examination of the liver (H&E). It is filed as in vivo, Swiss albino mice. The note with it: 21 dpi, in words. The method, then: as §2
The nature of series [6]: Pharmacokinetic study after oral administration. It is filed as in vivo, Wistar albino rats. The settings on record: rats, oral 20 mg/kg; for AUC(0-t): read-out: AUC₀ → 24; for half-life: read-out: T1/₂ (converted). The method, then: All groups received an oral dose of 20 mg/kg of their respective formulations. Blood samples (500 μL) were collected from the ocular vein into heparinized tubes at intervals of 0.5, 1, 2, 4, 6, 8, 12, and 24 hours post-administration. The samples were centrifuged at 10,000 rpm for 5 min to isolate plasma stored at −20°C. Plasma samples were deproteinized by adding 1 mL of acetonitrile to each sample, followed by vortexing for 10 min and centrifugation at 6,000 rpm for another 10 min. […] Pharmacokinetic parameters such as peak plasma concentration (Cmax), time to reach peak concentration (Tmax), mean residence time (MRT), area under the curve (AUC), elimination rate constant (Kel), and plasma half-life (t1/2) were calculated using PK Solver 2.0 software through non-compartmental analysis.

The subject of series [7] is cyclin D1. The series can be described thus: Immunohistochemical staining of cyclin D1 in the intestine. The settings on record: 21 dpi, in words. It is filed as in vivo, Swiss albino mice. As for the experimental part: Immunohistochemical examination for detecting intestinal dysplasia using cyclin D1 marker: Three to five-micrometer intestinal tissue sections were deparaffinized using xylene and rehydrated using varying degrees of alcohol. Next, peroxidase activity was blocked using 3% hydrogen peroxide. The Dako target retrieval solution (pH 6.0) was applied for twenty minutes. The sections were treated for one hour with the primary antibody (Anti-Cyclin D1 antibody [SP4], ab 16663, Abcam, UK, diluted 1/100 in PBS). Antibody binding was identified using Dako’s HRP Envision Kit (Dako Cytomation, Denmark).

Setting [8] is: 7th day PI (start of treatment), immunosuppressed mice, oral.
Setting [9] is: 14th day PI, NTZ forms 100 mg/kg/day 5 days, THQ forms and CsNPs 200 mg/kg three times a week, oral from 7 dpi.
Setting [10] is: 21th day PI, NTZ forms 100 mg/kg/day 5 days, THQ forms and CsNPs 200 mg/kg three times a week, oral from 7 dpi.
Setting [11] is: Wistar albino, rat, plasma, n = 6.

Each structure is given as a SMILES string. Marks after values point to notes of the source that are not given here.

A word on the AUC: it is concentration integrated over time. The low end stands for low exposure, the high end for high exposure. What is called AUC(0-inf) is total exposure, with the tail of the curve extrapolated. A lower AUC(0-inf) goes with less exposure. What is called Cmax is the peak of the concentration-time curve. A word on the MRT: it is a mean duration of stay, worked out from the concentration-time curve. The term Tmax denotes the time from dosing to the highest level. Regarding `CC1=CC(=O)C(C(C)C)=CC1=O` [THQ, 2-isopropyl-5-methyl-1,4-benzoquinone], the “IL-10 serum level, Mean ± SE” value in series [1] (14 days post-infection) is given as 18.5 ± 0.6^bc. Also, the “IL-10 serum level, Mean ± SE” value in series [1] (21 days post-infection) was 33.3 ± 0.4 ^bc. In addition, the “IFN-γ serum level, Mean ± SE” value in series [2] (14 days post-infection) is reported as 36.8 ± 1.5 ^b. Besides, the “IFN-γ serum level, Mean ± SE” value in series [2] (21 days post-infection) is 29.3 ± 0.6 ^ab. Further, the Spleen histopathological findings entry in series [3] was “partial improvement with mild hyperplasia of lymphoid elements”. In series [4] (setting [8]), the “Count of Cryptosporidium oocysts per gram stool, Mean ± SE” value (“Count … per gram stool, Mean ± SE” below) was 300 ± 3.1 ^Aa x10^3 per gram stool. The “I % (percent inhibition of oocyst count)” value in series [4] (14th day PI) is reported as 75%. Also, in series [4] (setting [9]), the “Count … per gram stool, Mean ± SE” value is 78 ± 1.5 ^Bd x10^3 per gram stool. Moreover, the “I% (percent inhibition of oocyst count, effectiveness)” value in series [4] (21th day PI) amounted to 77%. Besides, the “Count … per gram stool, Mean ± SE” value in series [4] (setting [10]) was 72 ± 2.6 ^Cd x10^3 per gram stool. For the same molecule, the Liver histopathological findings result in series [5] is given as “partial improvement”. In series [6] (Wistar albino, rat, plasma), the concentration at 0.5 h came to 9790 ± 3250 ng/mL, the concentration at 12 h was found to be 4880 ± 1790 ng/mL and the concentration at 24 h stood at 4190 ± 1580 ng/mL. Further, in series [6] (setting [11]), the AUC is 340 ± 13.6 µg·h/mL, the total exposure AUC(0-inf) stood at 630 ± 22.1 µg·h/mL, the peak level (Cmax) was 43600 ± 7920 ng/mL and the MRT came out at 6.97 ± 1.32 h. Moreover, in series [6] (setting [11]), the Tmax was 4 h, the AUC(0-t) was found to be 316 ± 12.5 µg·h/mL and the half-life was 53.2 ± 4.88 h. The same molecule returned a Kel in series [6] (n = 6) of 0.013 ± 0.0012 h˦ ¹. Moreover, the “cyclin D1 immunostaining of the intestine” value in series [7] is “Moderate immunostaining”.

As to `CC(=O)Oc1ccccc1C(=O)Nc1ncc([N+](=O)[O-])s1` [NTZ, nitazoxanide, reference compound], in series [1] (14 days post-infection), the “IL-10 serum level, Mean ± SE” value came to 16.9 ± 0.6 cd. Moreover, in series [1] (21 days post-infection), the “IL-10 serum level, Mean ± SE” value was 30.9 ± 0.3 ^c. Further, in series [2] (14 days post-infection), the “IFN-γ serum level, Mean ± SE” value is given as 37.1 ± 1.2 ^b. Also, in series [2] (21 days post-infection), the “IFN-γ serum level, Mean ± SE” value is recorded as 28.1 ± 1.3 ^b. In addition, the Spleen histopathological findings entry in series [3] is “partial improvement with mild hyperplasia of lymphoid elements”. In addition, the “Count … per gram stool, Mean ± SE” value in series [4] (setting [8]) is 307.3 ± 3 ^Aa x10^3 per gram stool. Besides, the “I % (percent inhibition of oocyst count)” value in series [4] (14th day PI) was found to be 53%. Also, the “Count … per gram stool, Mean ± SE” value in series [4] (setting [9]) is recorded as 146.8 ± 2.9 ^Bc x10^3 per gram stool. In addition, the “I% (percent inhibition of oocyst count, effectiveness)” value in series [4] (21th day PI) is 54%. The “Count … per gram stool, Mean ± SE” value in series [4] (setting [10]) is on record as 145.5 ± 2.6 ^Bc x10^3 per gram stool. For the same molecule, in series [5], the Liver histopathological findings result is reported as “partial improvement”. In series [6] (Wistar albino, rat, plasma), the concentration at 0.5 h was 24900 ± 9110 ng/mL, the concentration at 12 h worked out at 4160 ± 2710 ng/mL and the concentration at 24 h worked out at 1390 ± 890 ng/mL. Also, in series [6] (setting [11]), the exposure (AUC) amounted to 1440 ± 49.4 µg·h/mL, the AUC(0-inf) worked out at 1470 ± 52.3 µg·h/mL, the Cmax worked out at 53200 ± 4950 ng/mL and the Tmax was found to be 2 h. Besides, in series [6] (setting [11]), the AUC(0-t) was 1440 ± 48.7 µg·h/mL and the half-life was 6.55 ± 0.54 h. Moreover, the Kel in series [6] (n = 6) turned out to be 0.105 ± 0.0087 h˦ ¹. In addition, in series [7], the “cyclin D1 immunostaining of the intestine” value is given as “Moderate immunostaining”.
